From ChEMBL document CHEMBL3877304, “Peptide-Boronic Acid Inhibitors of Flaviviral Proteases: Medicinal Chemistry and Structural Biology” (J Med Chem, 2017) come the findings set out here.

The structures appear in SMILES notation. Where a SMILES comes first, the peptide text is derived from it. [ ]: non-standard residue; d: D form. The star is where a group is joined. Phe(4-guanidino) = N=C(N)Nc1ccc(C[C@H](N)C(=O)O)cc1; Phe(4-CH2NH2) = NCc1ccc(C[C@H](N)C(=O)O)cc1; Phe(4-NH2) = Nc1ccc(C[C@H](N)C(=O)O)cc1; Bz = O=C(c1ccccc1)*

The subject of series [1] is West Nile virus. Kind of series: Inhibition of West Nile virus His-tagged NS2B-NS3 protease expressed in Escherichia coli BL21(DE3) at 50 uM using Abz-Gly-Leu-Lys-Arg-Gly-Gly-3-(NO2)Tyr as substrate preincubated for 15 mins followed by substrate addition measured for 15 mins by fluorescence assay relative to control.
The subject of series [2] is dengue virus type 2. Nature of the series: Inhibition of Dengue virus serotype 2 His-tagged NS2B-NS3 protease expressed in Escherichia coli BL21(DE3) at 50 uM using Abz-Nle-Lys-Arg-Arg-Ser-3-(NO2)Tyr as substrate preincubated for 15 mins followed by substrate addition measured for 15 mins by fluorescence assay relative to control.
Series [3] can be described thus: Inhibition of West Nile virus His-tagged NS2B-NS3 protease expressed in Escherichia coli BL21(DE3) using Abz-Gly-Leu-Lys-Arg-Gly-Gly-3-(NO2)Tyr as substrate preincubated for 15 mins followed by substrate addition measured for 15 mins by fluorescence assay.
For series [4], the system named is West Nile virus. Kind of series: Antiviral activity against West Nile virus infected in African green monkey Vero E6 cells assessed as virus yield reduction after 3 days by crystal violet staining based plaque assay. Type of series: functional, cell-based. Conditions: 72 h.
The nature of series [5]: Inhibition of Dengue virus serotype 2 His-tagged NS2B-NS3 protease using Abz-Nle-Lys-Arg-Arg-Ser-3-(NO2)Tyr as substrate preincubated for 15 mins followed by substrate addition measured for 15 mins by fluorescence assay. On the set-up: species or system dengue virus type 2.
In series [6] the test system is dengue virus type 2. Nature of the series: Antiviral activity against Dengue virus serotype 2 infected in African green monkey Vero E6 cells assessed as virus yield reduction after 7 days by crystal violet staining based plaque assay. Type of series: functional, cell-based. Conditions: 168 h.
The nature of series [7]: Cytotoxicity against human HuH7 cells assessed as reduction in cell viability after 48 hrs by CellTiter-Glo assay. The format is toxicity, cell-based, Huh-7.
Series [8] can be described thus: Inhibition of Zika virus N-terminal His-tagged NS2B-NS3 protease expressed in Escherichia coli BL21 GOLD(DE3) using Bz-Nle-Lys-Lys-Arg-AMC as substrate preincubated for 10 mins followed by substrate addition by fluorophotometric method.
Series [9] relates to West Nile virus. Nature of the series: Antiviral activity against West Nile virus infected in African green monkey Vero E6 cells assessed as virus yield reduction at 50 uM after 3 days by crystal violet staining based plaque assay relative to control. Type of series: functional. Set-up: scale not given: the % may be the effect or the level left.
Series [10] deals with dengue virus type 2. Nature of the series: Antiviral activity against Dengue virus serotype 2 infected in African green monkey Vero E6 cells assessed as virus yield reduction at 50 uM after 7 days by crystal violet staining based plaque assay relative to control. The format is functional. Set-up: scale not given: the % may be the effect or the level left.
Series [11] concerns dengue virus type 2. Kind of series: Antiviral activity against Dengue virus serotype 2 infected in African green monkey Vero E6 cells assessed as virus yield reduction at 3.1 uM after 7 days by crystal violet staining based plaque assay relative to control. Type of series: functional. Set-up: scale not given: the % may be the effect or the level left.

Regarding `N=C(N)NCCC[C@H](NC(=O)c1ccccc1)C(N)=O`, the results for the inhibition in the series with West Nile virus [1] and in the series on dengue virus type 2 [2] were 9.6% and 9.7%, respectively.

As to `N=C(N)NCCC[C@H](NC(=O)[C@H](Cc1ccc(NC(=N)N)cc1)NC(=O)c1ccccc1)B(O)O`, the values for the IC50 in [3], in series [5] and in [8] were 0.071 µM, 0.036 µM and 0.83 µM, respectively. For the same molecule, the inhibition constant Ki amounted to 0.065 µM in series [3] and 0.027 µM in series [5]. Further, the EC50 in the series on West Nile virus [4] was determined as 25 µM; in the series on dengue virus type 2 [6] it was 18 µM. Moreover, the CC50 at 48 h in series [7] is greater than 100 µM.

As for `NCCC[C@H](NC(=O)c1ccccc1)C(N)=O`, the values for the inhibition in the series on West Nile virus [1] and in the series on dengue virus type 2 [2] were 18% and 2%, respectively.

As for `N=C(N)NCCC[C@H](NC(=O)[C@H](Cc1ccc(N)cc1)NC(=O)c1ccccc1)C(N)=O` (Bz-[Phe(4-NH2)]-Arg-NH2), the figures for the inhibition in the series on West Nile virus [1] and with dengue virus type 2 [2] were 13% and 5.2%, respectively.

In the case of `N=C(N)NCCC[C@H](NC(=O)[C@H](Cc1ccc(NC(=N)N)cc1)NC(=O)c1ccccc1)C(N)=O` (Bz-[Phe(4-guanidino)]-Arg-NH2), the inhibition in the series on West Nile virus [1] turned out to be 34%. In series [5], this molecule yielded an IC50 of 87 µM and a Ki of 29 µM.

Regarding `N=C(N)NCCC[C@H](NC(=O)[C@H](Cc1cccc(NC(=N)N)c1)NC(=O)c1ccccc1)B(O)O`, the Activity with West Nile virus [9] was 38%. Also, the IC50 in series [3] stood at 0.31 µM; in series [5], 0.11 µM; in [8], 1.9 µM. The values for the Ki in [3] and in series [5] were 0.3 µM and 0.091 µM, respectively. The EC50 in the series on dengue virus type 2 [6] was 48 µM. In [7], the CC50 at 48 h is no less than 100 µM.

Turning to `N=C(N)NCCC[C@H](NC(=O)c1ccccc1)B(O)O`, the Activity in the series on West Nile virus [9] came out at 19%; with dengue virus type 2 [10], 12%. Besides, the inhibition was 18% in the series with West Nile virus [1] and 51.9% in the series with dengue virus type 2 [2]. Also, the CC50 at 48 h in [7] was greater than 100 µM. For the same molecule, the concentration for half-maximal inhibition (IC50) in [8] is greater than 50 µM.

Turning to `N=C(N)NCCC[C@H](NC(=O)[C@H](Cc1ccc(CN)cc1)NC(=O)c1ccccc1)B(O)O`, the figures for the IC50 in series [3], in [5] and in series [8] were 0.11 µM, 0.066 µM and 0.25 µM, respectively. The inhibition constant (Ki) was determined as 0.082 µM in [3], 0.051 µM in [5] and 0.04 µM in series [8]. Also, the EC50 with West Nile virus [4] was determined as 38 µM; in the series with dengue virus type 2 [6], 30 µM. Besides, the CC50 at 48 h in series [7] was greater than 100 µM.

For `CC(C)(C)c1ccc(C(=O)N[C@@H](Cc2ccc(NC(=N)N)cc2)C(=O)N[C@@H](CCCNC(=N)N)B(O)O)cc1`, in the series on West Nile virus [9], the Activity is recorded as 30%. For the same molecule, the IC50 in series [3] is 0.21 µM; in series [5], 0.11 µM; in series [8], 2.1 µM. The Ki amounted to 0.16 µM in [3] and 0.078 µM in series [5]. Further, the EC50 in the series with dengue virus type 2 [6] turned out to be 19 µM. In addition, in [7], the CC50 at 48 h is greater than 100 µM.

For `N=C(N)NCCC[C@H](NC(=O)[C@@H](NC(=O)c1ccccc1)c1cccc(NC(=N)N)c1)B(O)O`, the Activity in the series on West Nile virus [9] is given as 47%; with dengue virus type 2 [10] it was 24%. Moreover, the figures for the IC50 in [3], in [5] and in series [8] were 0.14 µM, 0.26 µM and 1.2 µM, respectively. Moreover, the Ki worked out at 0.12 µM in [3] and 0.22 µM in [5]. In addition, in series [7], the CC50 at 48 h is greater than 100 µM.

`N=C(N)NCCC[C@H](NC(=O)[C@H](Cc1ccc(N)cc1)NC(=O)c1ccccc1)B(O)O`: the Activity in the series on dengue virus type 2 [11] was determined as 44%. The values for the half-maximal inhibitory concentration (IC50) in [3], in series [5] and in series [8] were 7.4 µM, 7.4 µM and greater than 40 µM, respectively. In addition, the inhibitory constant (Ki) was 6 µM in [3] and 4.2 µM in [5]. The EC50 with West Nile virus [4] was determined as 1.5 µM. Also, the CC50 at 48 h in series [7] amounted to 10.1 µM.

Molecule `N=C(N)NCCC[C@H](NC(=O)[C@H](Cc1cccc(NC(=N)N)c1)NC(=O)c1ccccc1)C(N)=O` came in with an inhibition with West Nile virus [1] of 33%. The molecule also had an IC50 in series [5] of 211 µM.

On to `N=C(N)NCCC[C@H](NC(=O)[C@@H](NC(=O)c1ccccc1)c1cccc(NC(=N)N)c1)C(N)=O`, for which the inhibition amounted to 22% with West Nile virus [1] and 9.8% in the series on dengue virus type 2 [2].

In the case of `NCCC[C@H](NC(=O)c1ccccc1)B(O)O`, the Activity in the series with West Nile virus [9] stood at 33%; in the series on dengue virus type 2 [10], 7.5%. For the same molecule, the inhibition in the series with West Nile virus [1] is 30%; in the series on dengue virus type 2 [2] it was 8.3%. Further, the CC50 at 48 h in series [7] was greater than 100 µM. Moreover, in series [8], the IC50 was greater than 50 µM.

Take `CC(C)(C)c1ccc(C(=O)N[C@@H](Cc2ccc(NC(=N)N)cc2)C(=O)N[C@@H](CCCNC(=N)N)C(N)=O)cc1`: the inhibition with West Nile virus [1] was found to be 34%. Moreover, the IC50 in series [5] came to 145 µM.

With `N=C(N)NCCC[C@H](NC(=O)[C@H](Cc1ccc(CN)cc1)NC(=O)c1ccccc1)C(N)=O` (Bz-[Phe(4-CH2NH2)]-Arg-NH2), the values for the inhibition in the series with West Nile virus [1] and with dengue virus type 2 [2] were 20% and 6.6%, respectively.

Usually inhibition stands for how much of the control response was suppressed. The term IC50 denotes the concentration that gives 50% inhibition. In general, Ki refers to the equilibrium dissociation constant of an inhibitor or competing ligand from its target. The EC50 is the concentration needed to bring the measured effect to its halfway point. By CC50 is commonly meant the concentration that lowers cell viability or growth by half.
